Experimental findings from patent publication US20120058499A1, “Bioluminescent Detection of Protease Activity” (priority 2010, published 2012) are described below.

This experiment has as its system Otub2, JosD1, JosD2, AMSH, Ataxin3, Ataxin3-like, UCHL5, USP20, and USP14. The experiment in a line: Substrate comparison on panel of nine isopeptidases. In kind it is biochemical. The protocol:
For Ub-AMC and Ub-Rhodamine110, all enzymes were diluted into 50 mM Tris, pH 8.0, 5 mM DTT, 0.05% CHAPS to a final concentration of 10 nM. […] Either Ub-AMC or Ub-Rhodamine110 (final reaction concentration equal to 250 nM) were diluted into 50 mM Tris, pH 8.0, 5 mM DTT, 0.05% (w/v) CHAPS. […] For Ub-Rhodamine110, fluorescence was monitored with filters corresponding to excitation at 485 nm and emission at 531 nm.

Take Ub(1-76)-aminoluciferin [Ub-LUC]: the “S/B towards Ub-amino-luciferin, fold higher than Ub-AMC / Ub-Rhodamine110” value (equivalent molar concentrations, seven of nine DUBs (exceptions JosD2 and UCHL5)) is recorded as 10-1000 fold. For the same substance, under “range over panel of 9 isopeptidases, 10 nM”, the “fold greater S/B compared to Z-RLRGG-amino-luciferin (DUB-Glo reagent)” value was 10-1000 fold.
